From ChEMBL document CHEMBL1132513, “Manipulation of the C(22)-C(27) region of rapamycin: stability issues and biological implications” (Bioorg Med Chem Lett, 1999)

Columns and labels:
[1] = Ability to bind to FK506 binding protein via its inhibition of peptidyl prolyl cis-trans isomerase activity (PPIase) inherent to FKBP
[2] = The activity in the LAF assay is best expressed as a ratio of the rapamycin IC50 (1-9 nM) /analogue IC50 (R/A); type: functional
Mus musculus [3] = species: Mus musculus; experiment: In vitro ability to inhibit lymphoproliferation (LAF) in vitro using cells from the thymus of normal BALB/c mice; type: functional
[4] = Half life was determined; type: ADME; settings: rat
Mus musculus [5] = experiment: Ability to prevent transplantation rejection in vivo in mouse skin graft model; type: functional

Compound	IC50 [1]	Ratio [2]	IC50 (Mus musculus [3])	half-life [4]	Skin Graft Survival (Mus musculus [5])	Survival (Mus musculus [5])
CCC12CCCCN1C(=O)C(=O)[C@]1(O)O[C@@H](CC[C@H]1C)C[C@H](OC)/C(C)=C/C=C/C=C/[C@@H](C)C[C@@H](C)C(=O)[C@H](OC)[C@H](O)/C(C)=C/[C@@H](C)C(=O)C[C@@H]([C@H](C)C[C@H]1CC[C@H](O)[C@H](OC)C1)OC2=O (stereo not given in full)	950 nM	0.07	140 nM	–	–	–
CO[C@H]1C[C@@H]2CC[C@@H](C)[C@@](O)(O2)C(=O)C(=O)N2CCCC[C@H]2C(=O)O[C@H]([C@H](C)C[C@H]2CC[C@H](O)[C@@H](OC)C2)C[C@@H](OC(C)=O)[C@H](C)/C=C(\C)[C@@H](O)[C@@H](OC)C(=O)[C@H](C)C[C@H](C)/C=C/C=C/C=C/1C	–	0.08	99 nM	34 h	–	–
CO[C@H]1C[C@@H]2CC[C@@H](C)[C@@](O)(O2)C(=O)C(=O)N2CCCC[C@H]2C(=O)O[C@H]([C@H](C)C[C@@H]2CC[C@@H](O)[C@H](OC)C2)CC(=O)[C@H](C)/C=C(\C)[C@@H](O)[C@@H](OC)C(=O)[C@H](C)C[C@H](C)/C=C/C=C/C=C/1C [SIROLIMUS]	15 nM	–	3 nM	13 h	12	–
CO[C@H]1C[C@@H]2CC[C@@H](C)[C@@](O)(O2)C(=O)C(=O)N2CCCCC2(C)C(=O)O[C@H]([C@H](C)C[C@H]2CC[C@H](O)[C@@H](OC)C2)CC(=O)[C@H](C)/C=C(\C)[C@@H](O)[C@@H](OC)C(=O)[C@H](C)C[C@H](C)/C=C/C=C/C=C/1C (stereo not given in full)	95 nM	0.42	23 nM	38.4 h	–	9.33
CO[C@H]1C[C@@H]2CC[C@@H](C)[C@@](O)(O2)C(=O)C(=O)N2CCCCC2(C)C(=O)O[C@H]([C@H](C)C[C@H]2CC[C@H](O)[C@@H](OC)C2)CC(O)[C@H](C)/C=C(\C)[C@@H](O)[C@@H](OC)C(=O)[C@H](C)C[C@H](C)/C=C/C=C/C=C/1C (stereo not given in full)	150 nM	0.23	9.9 nM	14.6 h	–	7
CO[C@H]1C[C@@H]2CC[C@@H](C)[C@@](O)(O2)C(=O)C(=O)N2CCCC[C@H]2C(=O)O[C@H]([C@H](C)C[C@H]2CC[C@H](O)[C@@H](OC)C2)CC(O)[C@H](C)/C=C(\C)[C@@H](O)[C@@H](OC)C(=O)[C@H](C)C[C@H](C)/C=C/C=C/C=C/1C (stereo not given in full)	22 nM	1.3	3.7 nM	17.5 h	8.5	–
CO[C@H]1C[C@@H]2CC[C@@H](C)[C@@](O)(O2)C(=O)C(=O)N2CCCC[C@H]2C(=O)O[C@H](C[C@H](O)[C@H](C)C[C@@H]2CC[C@@H](O)[C@H](OC)C2)[C@H](C)/C=C(\C)[C@@H](O)[C@@H](OC)C(=O)[C@H](C)C[C@H](C)/C=C/C=C/C=C/1C	310 nM	0.42	16 nM	21.6 h	–	7
